Data: patent US20070259889A1, “Protein Binding Compounds” (priority 2003, published 2007)

The molecules below were run against bovine serum albumin (BSA) (Bos taurus, UniProt P02769) (assay: Protein binding studies (albumin binding, centrifugal ultrafiltration, HPLC)). Settings: didanosine and didanosine prodrugs; method of Example 7: 4% BSA in water, 30 minutes at 37° C., 10,000 MWCO centrifugal filter, phosphate buffer pH 7.4 reference.
Type: in vitro ADME
Method: The compound (approximately 5 mg) was dissolved in DMSO (approximately 1.8 ml). A small sample of this DMSO solution (approximately 5 mg) was added to a solution of bovine serum albumin (BSA) in water (approximately 1.8 ml, 4% BSA). Another sample of the DMSO solution (approximately 5 mg) was added to a solution of phosphate buffer pH 7.4 (isotonic) (approximately 1.8 ml).
Both samples were shaken in a water bath for 30 minutes at 37° C.
The devices were centrifugated at 4000 rpm for 1 hour at 37° C.
The amount of drug in the filtrates was determined by HPLC(C-18 column, phosphate buffer pH 2.2/acetonitrile, UV detection).

Chain of bovine serum albumin (BSA) (P02769 25-607): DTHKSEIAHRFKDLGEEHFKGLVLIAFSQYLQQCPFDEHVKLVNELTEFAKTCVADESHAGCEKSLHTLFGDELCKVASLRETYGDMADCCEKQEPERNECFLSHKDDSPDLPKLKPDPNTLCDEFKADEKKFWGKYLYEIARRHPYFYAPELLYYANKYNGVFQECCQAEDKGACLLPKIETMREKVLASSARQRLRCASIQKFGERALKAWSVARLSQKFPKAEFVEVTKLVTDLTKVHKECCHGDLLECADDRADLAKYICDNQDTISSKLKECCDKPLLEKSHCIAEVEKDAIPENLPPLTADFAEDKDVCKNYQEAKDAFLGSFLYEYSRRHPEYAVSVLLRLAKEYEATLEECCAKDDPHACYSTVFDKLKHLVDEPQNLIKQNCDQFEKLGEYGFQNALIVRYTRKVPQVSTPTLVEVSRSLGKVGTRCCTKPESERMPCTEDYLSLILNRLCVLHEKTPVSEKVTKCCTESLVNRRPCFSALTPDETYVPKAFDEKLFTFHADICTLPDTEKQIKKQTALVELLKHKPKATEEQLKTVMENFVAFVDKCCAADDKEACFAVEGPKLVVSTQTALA

**Q.** With `O=C(O)CCCCCCCCCCCCCCC(=O)OCC1CCC(n2cnc3c(=O)[nH]cnc32)O1` (stereo not shown) [2′,3′-dideoxy-5′-hydrogen hexadecanedioate inosine] as the molecule, how does the “% Albumin binding” value read?
**A.** 100%

**Q.** `O=C(O)CCCCCCCCCCC(=O)OCC1CCC(n2cnc3c(=O)[nH]cnc32)O1` (stereo not shown) [2′,3′-dideoxy-5′-hydrogen dodecanedioate inosine] was tested. Which “% Albumin binding” value did it give?
**A.** 94%

**Q.** `O=C(O)CCCCCCC(=O)OCC1CCC(n2cnc3c(=O)[nH]cnc32)O1` (stereo not shown) [2′,3′-dideoxy-5′-hydrogen octanedioate inosine] was tested. Which “% Albumin binding” value did it give?
**A.** 40%

**Q.** `O=C(O)CCCCC(=O)OCC1CCC(n2cnc3c(=O)[nH]cnc32)O1` (stereo not shown) [2′,3′-dideoxy-5′-hydrogen hexanedioate inosine] was tested. Which “% Albumin binding” value did it give?
**A.** 10%
